Experimental data as given in US12384808B2, “Modulators of TNF-α activity” (Forward Therapeutics, Inc., priority 2022, dated 2025).

molecular target: TNFα (Homo sapiens, UniProt P01375); test: TNFα Induced HEK Blue Cellular Assay; type: cell-based; details: HEK Blue TNFα reporter cells, TNFα 100 pg/ml, 24 hrs at 37° C., secreted alkaline phosphatase (QUANTI-Blue) read at 620 nm; read-out: IC50 value
In short: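 Reporter cells (10,000/well, DMEM + 10% FBS) with compound (final […] to 0.5 nM) stimulated with 100 pg/ml TNFα, 24 h at 37 °C, 5% CO2. Secreted alkaline phosphatase read at 620 nm; IC50 by 4-parameter logistic fit after background correction against stimulated/unstimulated DMSO controls.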

Chain of TNFα (P01375 77-233 limits assumed): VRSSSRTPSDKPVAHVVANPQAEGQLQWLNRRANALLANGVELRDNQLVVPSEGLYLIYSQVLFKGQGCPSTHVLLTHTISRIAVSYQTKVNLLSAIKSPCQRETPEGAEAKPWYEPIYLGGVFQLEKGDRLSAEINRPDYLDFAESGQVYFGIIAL

Row | IC50 [nM] | SMILES
1 | < 100 | CN1C(=O)c2cccc(OC(F)F)c2[C@H]2C[C@@H]1c1nc3ccc(-c4ccc(P5(=O)CCOCC5)nc4)cc3n12 [Example 6, (1R,11R)-18-(difluoromethoxy)-12-methyl-5-[6-(4-oxo-1,4lambda5-oxaphosphinan-4-yl)pyridin-3-yl]-2,9,12-triazapentacyclo[9.8.1.0^{2,10}.0^{3,8}.0^{14,19}]icosa-3(8),4,6,9,14(19),15,17-heptaen-13-one]
2 | < 100 | [2H]C([2H])([2H])N1C(=O)c2cccc(OC(F)F)c2[C@H]2C[C@@H]1c1nc3ccc(-c4cc(F)c(P(C)(C)=O)cc4F)nc3n12 [Example 142, (7R,14R)-1-(difluoromethoxy)-11-(4-(dimethylphosphoryl)-2,5-difluorophenyl)-6-(methyl-d3)-6,7-dihydro-7,14-methanobenzo[f]pyrido[3′,2′:4,5]imidazo[1,2-a][1,4]diazocin-5(14H)-one]
3 | 100 to 1000 | [2H]C([2H])([2H])N1C(=O)c2cccc(OC(F)F)c2[C@H]2C[C@@H]1c1nc3ccc(-c4ccc(P(C)(C)=O)cc4C(F)(F)F)cc3n12 [Example 104, (7R,14R)-1-(difluoromethoxy)-11-(4-(dimethylphosphoryl)-2-(trifluoromethyl)phenyl)-6-(methyl-d3)-6,7-dihydro-7,14-methanobenzo[f]benzo[4,5]imidazo[1,2-a][1,4]diazocin-5(14H)-one]
4 | < 100 | [2H]C([2H])([2H])N1C(=O)c2cccc(OC(F)F)c2[C@H]2C[C@@H]1c1nc3ccc(-c4ccc(P(C)(C)=O)c(C)c4F)cc3n12 [Example 107, (7R,14R)-1-(difluoromethoxy)-11-(4-(dimethylphosphoryl)-2-fluoro-3-methylphenyl)-6-(methyl-d3)-6,7-dihydro-7,14-methanobenzo[f]benzo[4,5]imidazo[1,2-a][1,4]diazocin-5(14H)-one]
5 | < 100 | [2H]C([2H])([2H])N1C(=O)c2cccc(OC(F)F)c2[C@H]2C[C@@H]1c1nc3ccc(-c4ccc(P(C)(C)=O)c(F)c4C)cc3n12 [Example 90, (7R,14R)-1-(difluoromethoxy)-11-(4-(dimethylphosphoryl)-3-fluoro-2-methylphenyl)-6-(methyl-d3)-6,7-dihydro-7,14-methanobenzo[f]benzo[4,5]imidazo[1,2-a][1,4]diazocin-5(14H)-one]
6 | 100 to 1000 | CN1C(=O)c2cccc(OC(F)F)c2[C@H]2C[C@@H]1c1nc3ccc(-c4cnc(OCP(C)(C)=O)nc4)cc3n12 [Example 9, (1R,11R)-18-(difluoromethoxy)-5-{2-[(dimethylphosphoryl)methoxy]pyrimidin-5-yl}-12-methyl-2,9,12-triazapentacyclo[9.8.1.0^{2,10}.0^{3,8}.0^{14,19}]icosa-3(8),4,6,9,14(19),15,17-heptaen-13-one]
7 | 100 to 1000 | CP(C)(=O)Cc1ccc(-c2ccc3nc4n(c3c2)[C@@H]2C[C@H]4NC(=O)c3cccc(OC(F)F)c32)c(F)c1 [Example 96, (7R,14R)-1-(difluoromethoxy)-11-(4-((dimethylphosphoryl)methyl)-2-fluorophenyl)-6,7-dihydro-7,14-methanobenzo[f]benzo[4,5]imidazo[1,2-a][1,4]diazocin-5(14H)-one]
8 | 100 to 1000 | CN1C(=O)c2cccc(OC(F)F)c2[C@H]2C[C@@H]1c1nc3ccc(-c4cnc(P(C)(C)=O)nc4)cc3n12 [Example 8, (1R,11R)-18-(difluoromethoxy)-5-[2-(dimethylphosphoryl)pyrimidin-5-yl]-12-methyl-2,9,12-triazapentacyclo[9.8.1.0^{2,10}.0^{3,8}.0^{14,19}]icosa-3(8),4,6,9,14(19),15,17-heptaen-13-one]
9 | 100 to 1000 | [2H]C([2H])([2H])N1C(=O)c2cccc(OC(F)F)c2[C@H]2C[C@@H]1c1nc3ccc(-c4ccc(P(C)(C)=O)c(Cl)n4)cc3n12 [Example 121, (7R,14R)-11-(6-chloro-5-(dimethylphosphoryl)pyridin-2-yl)-1-(difluoromethoxy)-6-(methyl-d3)-6,7-dihydro-7,14-methanobenzo[f]benzo[4,5]imidazo[1,2-a][1,4]diazocin-5(14H)-one]
10 | < 100 | [2H]C([2H])([2H])N1C(=O)c2cccc(OC(F)F)c2[C@H]2C[C@@H]1c1nc3ccc(-c4ccc(P(C)(C)=O)c(C)c4)cc3n12 [Example 105, (7R,14R)-1-(difluoromethoxy)-11-(4-(dimethylphosphoryl)-3-methylphenyl)-6-(methyl-d3)-6,7-dihydro-7,14-methanobenzo[f]benzo[4,5]imidazo[1,2-a][1,4]diazocin-5(14H)-one]
11 | < 100 | [2H]C([2H])([2H])N1C(=O)c2cccc(OC(F)F)c2[C@H]2C[C@@H]1c1nc3cc(F)c(-c4ccc(CP(C)(C)=O)c(F)c4)cc3n12 [Example 78, (7R,14R)-1-(difluoromethoxy)-11-(4-((dimethylphosphoryl)methyl)-3-fluorophenyl)-10-fluoro-6-(methyl-d3)-6,7-dihydro-7,14-methanobenzo[f]benzo[4,5]imidazo[1,2-a][1,4]diazocin-5(14H)-one]
12 | < 100 | CN1C(=O)c2cccc(OC(F)F)c2[C@H]2C[C@@H]1c1nc3ccc(-c4ccc(P(C)(C)=O)c(F)c4)cc3n12 [Example 14, (1R,11R)-18-(difluoromethoxy)-5-[4-(dimethylphosphoryl)-3-fluorophenyl]-12-methyl-2,9,12-triazapentacyclo[9.8.1.0^{2,10}.0^{3,8}.0^{14,19}]icosa-3(8),4,6,9,14(19),15,17-heptaen-13-one]
13 | < 100 | CN1C(=O)c2cccc(OC(F)F)c2[C@H]2C[C@@H]1c1nc3ccc(-c4ccc(P(C)(C)=O)nc4)cc3n12 [Example 2, (7R,14R)-1-(difluoromethoxy)-11-(6-(dimethylphosphoryl)pyridin-3-yl)-6-methyl-6,7-dihydro-7,14-methanobenzo[f]benzo[4,5]imidazo[1,2-a][1,4]diazocin-5(14H)-one]
14 | < 100 | [2H]C([2H])([2H])N1C(=O)c2cccc(OC(F)F)c2[C@H]2C[C@@H]1c1nc3ccc(-c4cnc(P(C)(C)=O)cc4Cl)cc3n12 [Example 93, (7R,14R)-11-(4-chloro-6-(dimethylphosphoryl)pyridin-3-yl)-1-(difluoromethoxy)-6-(methyl-d3)-6,7-dihydro-7,14-methanobenzo[f]benzo[4,5]imidazo[1,2-a][1,4]diazocin-5(14H)-one]
15 | < 100 | [2H]C([2H])([2H])N1C(=O)c2cccc(OC(F)F)c2[C@H]2C[C@@H]1c1nc3ccc(-c4ccc(P(C)(C)=O)c(F)c4)cc3n12 [Example 24, (7R,14R)-1-(difluoromethoxy)-11-(4-(dimethylphosphoryl)-3-fluorophenyl)-6-(methyl-d3)-6,7-dihydro-7,14-methanobenzo[f]benzo[4,5]imidazo[1,2-a][1,4]diazocin-5(14H)-one]
16 | < 100 | CN1C(=O)c2cccc(OC(F)F)c2[C@H]2C[C@@H]1c1nc3ccc(-c4cnc(OCP(C)(C)=O)c(F)c4)cc3n12 [Example 10, (1R,11R)-18-(difluoromethoxy)-5-{6-[(dimethylphosphoryl)methoxy]-5-fluoropyridin-3-yl}-12-methyl-2,9,12-triazapentacyclo [9.8.1.0^{2,10}.0^{3,8}.0^{14,19}]icosa-3(8),4,6,9,14(19),15,17-heptaen-13-one]
17 | < 100 | [2H]C([2H])([2H])N1C(=O)c2cccc(OC(F)F)c2[C@H]2C[C@@H]1c1nc3ccc(-c4ccc(CP(C)(C)=O)cc4)cc3n12 [Example 70, (7R,14R)-1-(difluoromethoxy)-11-(4-((dimethylphosphoryl)methyl)phenyl)-6-(methyl-d3)-6,7-dihydro-7,14-methanobenzo[f]benzo[4,5]imidazo[1,2-a][1,4]diazocin-5(14H)-one]
18 | < 100 | [2H]C([2H])([2H])N1C(=O)c2cccc(OCC)c2[C@H]2C[C@@H]1c1nc3ccc(-c4cc(F)c(P(C)(C)=O)cc4F)cc3n12 [Example 75, (7R,14R)-11-(4-(dimethylphosphoryl)-2,5-difluorophenyl)-1-ethoxy-6-(methyl-d3)-6,7-dihydro-7,14-methanobenzo[f]benzo[4,5]imidazo[1,2-a][1,4]diazocin-5(14H)-one]
19 | 100 to 1000 | [2H]C([2H])([2H])N1C(=O)c2cccc(OC(F)F)c2[C@H]2C[C@@H]1c1nc3ccc(-c4cc(F)c(P(C)(C)=O)c(C)n4)cc3n12 [Example 123, (7R,14R)-1-(difluoromethoxy)-11-(5-(dimethylphosphoryl)-4-fluoro-6-methylpyridin-2-yl)-6-(methyl-d3)-6,7-dihydro-7,14-methanobenzo[f]benzo[4,5]imidazo[1,2-a][1,4]diazocin-5(14H)-one]
20 | < 100 | Cc1cc(P(C)(C)=O)ccc1-c1ccc2nc3n(c2c1)[C@@H]1C[C@H]3N(C)C(=O)c2cccc(OC(F)F)c21 [Example 29, (1R,11R)-18-(difluoromethoxy)-5-[4-(dimethylphosphoryl)-2-methylphenyl]-12-methyl-2,9,12-triazapentacyclo[9.8.1.0^{2,10}.0^{3,8}.0^{14,19}]icosa-3(8),4,6,9,14(19),15,17-heptaen-13-one]
21 | 1000 to 10000 | CP(C)(=O)COc1ccc(-c2ccc3nc4n(c3c2)[C@@H]2C[C@H]4NC(=O)c3cccc(OC(F)F)c32)cn1 [Example 11, (1R,11R)-18-(difluoromethoxy)-5-{6-[(dimethylphosphoryl)methoxy]pyridin-3-yl}-2,9,12-triazapentacyclo[9.8.1.0^{2,10}.0^{3,8}.0^{14,19}]icosa-3(8),4,6,9,14(19),15,17-heptaen-13-one]
22 | 100 to 1000 | [2H]C([2H])([2H])N1C(=O)c2cccc(OC(F)F)c2[C@H]2C[C@@H]1c1nc3ccc(-c4cnc(P(C)(C)=O)cc4C)cc3n12 [Example 87, (7R,14R)-1-(difluoromethoxy)-11-(6-(dimethylphosphoryl)-4-methylpyridin-3-yl)-6-(methyl-d3)-6,7-dihydro-7,14-methanobenzo[f]benzo[4,5]imidazo[1,2-a][1,4]diazocin-5(14H)-one]
